Measurements published in US10973819B2, “Small molecules inhibitors of RAD51” (The University of Chicago, priority 2016, dated 2021).
Read-outs that look alike come from different tables or passages of the source. Values belong to the molecule of their own block, whether it stands above or below them.

Key:
293-DR-GFP cells = experiment: DR-GFP assay, quantitation of HR efficiency in cells; format: cell-based, human; details: for inhibitory activity in the cell-based HR (DR-GFP) assay relative to 1 and 8, in words: 24-hour incubation, FIG. 5a
Procedure: 293-DR-GFP cells were electroporated in Opti-MEM with 37.5 μg/ml pCBASce in 0.4 cm cuvettes at 325 V, 975 μF and seeded into 6-well plates with 2.5 ml complete DMEM+0.5% DMSO with compound and allowed to outgrow for 24 hours. Following outgrowth, cells were harvested and suspended in PBS with 1 μg/ml 7-aminoactinomycin D (7-AAD) and analyzed on a BD FACSCalibur flow cytometer. Dead and apoptotic cells were gated out based on size, shape, and 7-AAD staining and the fraction of GFP-positive cells among the population of live cells was determined.
The DR-GFP assay was used to test the ability of representative compounds to inhibit HR in human cells.^27 Briefly, cells containing the chromosomal DR-GFP reporter were transfected with a plasmid that expresses I-SceI, a rare-cutting endonuclease that makes a DSB within the DR-GFP cassette. Compounds were added at the time of transfection and the cells were outgrown for 24 hours. For longer outgrowth periods such as 48 hours, cells regained some HR activity. To overcome this technical limitation, the relatively early time point of 24 hours was selected to describe the in vivo effects of these compounds.

RAD51 foci [1] = experiment: RAD51 cytological focus formation after irradiation; format: cell-based, human; details: 6 hours post-irradiation
Procedure: Cells were grown on glass coverslips for two days prior to irradiation with X-rays at 1.5 Gy/min using a Philips RT250 Maxitron. Following 6 hours of outgrowth, the adherent cells were incubated in permeabilization buffer (20 mM HEPES-NaOH (pH 7.4), 50 mM NaCl, 3 mM MgCl2, 0.5% Triton X-100, 300 mM sucrose) for 10 minutes at room temperature and then fixed in ice-cold fixation buffer (3% paraformaldehyde, 3.4% sucrose in 1×PBS) for 10 minutes at room temperature. The coverslips were washed 3 times in PBS, incubated in blocking buffer (1% BSA in 1×PBS) for 30 minutes, incubated with rabbit anti-human RAD51 primary antibody (Pacific Immunology) at a 1:1000 dilution in blocking buffer for 18 hours at 4° C., washed 3 times in PBS, incubated with Alexa488-conjugated goat anti-rabbit IgG secondary antibody (Invitrogen) at a 1:1000 dilution in blocking buffer for 1 hour at room temperature, washed 3 times in PBS, air-dried, and mounted onto glass slides in Vectashield with DAPI H-1200 (Vector laboratories). Slides were viewed on a Zeiss Axio Imager.M1 epifluorescence microscope equipped with a CCD camera for acquiring images of at least 100 randomly-selected nuclei per test condition at a representative focal plane within the nuclear volume. Sub-nuclear RAD51 foci were quantified using ImageJ (NIH, Bethesda, Md.) using a custom macro set that automatically counts foci. […]

RAD51 [2] = target: T1, RAD51 (Homo sapiens, UniProt Q06609); experiment: Fluorescence polarization-based DNA binding assay (RAD51-ssDNA binding); format: biochemical; details: for Emax: read-out: ssDNA binding Max effect; for influence on RAD51-ssDNA binding, in words: summary of Tables 2 and 3
T1 sequence (Q06609 1-339): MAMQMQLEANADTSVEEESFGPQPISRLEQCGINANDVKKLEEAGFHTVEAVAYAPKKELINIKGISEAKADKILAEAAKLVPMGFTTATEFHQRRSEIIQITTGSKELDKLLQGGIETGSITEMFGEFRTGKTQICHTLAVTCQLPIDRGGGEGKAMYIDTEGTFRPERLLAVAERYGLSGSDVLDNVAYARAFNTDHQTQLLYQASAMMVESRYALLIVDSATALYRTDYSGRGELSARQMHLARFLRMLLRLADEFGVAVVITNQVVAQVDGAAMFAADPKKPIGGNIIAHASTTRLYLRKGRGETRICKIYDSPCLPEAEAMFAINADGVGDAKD
Procedure: The fluorescence polarization-based DNA binding assay and purification of human RAD51 used for this assay was performed as previously described with a few modifications.^23 Reactions were carried out in black 384-well polystyrene plates. In each well, RAD51 protein was combined with reaction buffer and varying concentrations of compound in DMSO in an initial volume of 40 μl and incubated at 37° C. for 40 minutes. Then, 10 μl of reaction buffer containing fluorescently-labeled ssDNA substrate (5′-Alexa488-oligo-dT45) was added and the reaction incubated at 37° C. for another 40 minutes, after which the plate was read on a Tecan Infinite 200 Pro plate reader equipped with two sets of 485±25 nm/535±35 nm with parallel or perpendicularly-oriented polarization filters. In both steps of the reaction setup, buffer components were maintained at 20 mM HEPES-NaOH (pH 7.5), 2 mM ATP, 10 mM MgCl2, 0.1 mM TCEP-HCl (tris(2-carboxyethyl)phosphine), and 0.25 μM BSA. The final reaction contained 4% DMSO, 0.2 μM RAD51, 30 mM NaCl, 2% glycerol, and 2.22 nM ssDNA substrate. Compound IC50 values were obtained by least-squares regression fitting of appropriate linear, log, or sigmoid dose-response models to the data, with the standard error indicated. […]

[3] = system: PC-3, Caov-3, SKOV3.ip1, Kuramochi, U2OS cell lines; experiment: Clonogenic survival of tumor cell lines after veliparib, olaparib or ionizing radiation; format: cell-based; details: administered immediately after veliparib, present during clonogenic outgrowth, FIGS. 6a-f
Procedure: FIG. 6A PC-3 cell line treated with veliparib. FIG. 6B Caov-3 cell line treated with veliparib. FIG. 6C Caov-3 cell line treated with olaparib. FIG. 6D SKOV3.ip1 cell line treated with veliparib. FIG. 6E Kuramochi cell line treated with veliparib. FIG. 6F U2OS cell line treated with ionizing radiation (x-rays).
Because 9h inhibits HR-mediated repair of DSBs, the effect of 9h on the sensitization of cancer cells to PARP inhibition or radiation damage was investigated. […] 2.

RAD51 [4] = target: T1, RAD51; experiment: Gel-based D-loop assay; format: biochemical; details: for IC50: read-out: D-Loops IC50
Procedure: Human RAD51 in reaction buffer was combined with compound in […] DMSO, incubated at 37° C. for 10 min, and then 1 μl of 5′-^32P-labeled 90-mer ssDNA (5′-[…]) with homology to the plasmid pRS306 ^34 was added and the reaction was incubated at 37° C. for an additional 5 minutes. 1 μl of supercoiled pRS306 was then added to the reaction and incubated at 37° C. for 20 minutes; at this point the reaction consisted of 25 mM HEPES-NaOH (pH 7.0), 1 mM ATP, 1 mM MgCl2, 1 mM DTT, 1.5 μM BSA, 4.5% DMSO, 0.5 μM RAD51, 11 mM NaCl, 1% glycerol, 20 nM ssDNA, and 5 nM pRS306. The reactions were de-proteinized with 0.8% SDS and 0.8 mg/ml proteinase K, mixed with gel loading buffer, and run on a 0.9% agarose/1×TAE gel, which was dried and exposed to a phosphor screen overnight and imaged on a Storm 860 PhosphorImager. Compound IC50 values were obtained by least-squares regression fitting of appropriate linear, log, or sigmoid dose-response models to the data, with the standard error indicated.
To improve upon the D-loop inhibitory activity, medicinal chemical studies were undertaken to optimize 8. First, different functional groups were appended to rings A and B as substituents, including alkyl groups of different sizes, electron withdrawing/donating groups, and hydrogen bond donor/acceptor groups. Next, replacement of the phenyl ring B with different heterocycles or other saturated/unsaturated rings was investigated in order to probe its role. For each of the prepared compounds, the gel-based D-loop assay and the microplate-based DNA binding assay were used to characterize the biochemical activities.

RAD51 [5] = target: T1, RAD51; details: while sparing ssDNA binding activity; cited from earlier work
RAD51 foci [6] = details: previously reported; cited from earlier work
[7] = Stability on exposure to air at room temperature; format: physicochemical; details: slowly oxidized over time to compound 8
Excerpt: These experimental results signify that compound 7 and 1 are distinct compounds. Compound 7 was not stable when exposed to air at room temperature; instead, it slowly oxidized over time to compound 8 (Scheme 2). Additionally, some of the oxidized product 8 was always produced during the preparation of compound 7.

- Emax (RAD51 [2]; Table 2, cells marked ↑: compound stimulates RAD51-ssDNA binding): 2 ± 24%
- influence on RAD51-ssDNA binding, in words (RAD51 [2]): almost no impact
- D-Loops Max inhibition effect (RAD51 [4]; Table 2): 91 ± 2%
SMILES: CCNc1ccc(-c2nc3ccccc3n3cccc23)cc1 [Compound 9h, N-ethyl-4-(pyrrolo[1,2-a]quinoxalin-4-yl)aniline]
- IC50 (293-DR-GFP cells; Homo sapiens, 24 hours post-transfection, FIG. 5b, read-out: IC50, inhibition of cellular HR): 0.3 ± 0.125 µM
- inhibition of cellular HR (293-DR-GFP cells; at concentrations that did not inhibit RAD51 foci assembly): more than 90%
- timely assembly of RAD51 into sub-nuclear foci in response to DNA damage (RAD51 foci [1]): did not inhibit
- sensitization of cancer cell lines to veliparib, olaparib or irradiation (clonogenic survival) [3]: significantly sensitized
- sensitization of cancer cell lines to veliparib, olaparib or irradiation (clonogenic survival) ([3]; listed as RI(dl)-2): significantly sensitizes

- ssDNA binding IC50 (RAD51 [2]; Table 3, Stim = stimulator): Stim
- Emax (RAD51 [2]; Table 3, cells marked ↑: compound stimulates RAD51-ssDNA binding): 34 ± 32%
- influence on RAD51-ssDNA binding, in words (RAD51 [2]): only weakly influenced
- D-Loops Max inhibition effect (RAD51 [4]; Table 3): 91 ± 8%
- IC50 (RAD51 [4]; Table 3): 9.8 µM
SMILES: CN(C)c1ccc(-c2nc3cc(O)ccc3n3cccc23)cc1 [Compound 12g, 4-(4-(Dimethylamino)phenyl)pyrrolo[1,2-a]quinoxalin-7-ol]
- inhibitory activity in the cell-based HR (DR-GFP) assay relative to 1 and 8, in words (293-DR-GFP cells): comparable or slightly less inhibitory activity

- IC50 (RAD51 [2]; Table 3, Stim = stimulator): 96.9 ± 44.9 µM
- Emax (RAD51 [2]; Table 3, cells marked ↓: compound inhibits RAD51-ssDNA binding): 82 ± 23%
- influence on RAD51-ssDNA binding, in words (RAD51 [2]): modest effects
- IC50 (RAD51 [4]; Table 3): 8.4 ± 3.4 µM
SMILES: Nc1ccc(-c2nc3cc(O)ccc3n3cccc23)cc1 [Compound 12f, 4-(4-Aminophenyl)pyrrolo[1,2-a]quinoxalin-7-ol]
- inhibitory activity in the cell-based HR (DR-GFP) assay relative to 1 and 8, in words (293-DR-GFP cells): comparable or slightly less inhibitory activity

SMILES: C[C@@]12CCC(=O)c3coc(c31)C(=O)c1cc3c(cc12)C(=O)C=CC3=O [Halenaquinone, halenaquinone]
- inhibition of RAD51's HR activity in biochemical assays (RAD51 [5]): strongly inhibit
- formation of RAD51 foci in human cells following irradiation (RAD51 foci [6]): inhibit

- ssDNA binding IC50 (RAD51 [2]; Table 1, Stim = stimulator): Stim
- Emax (RAD51 [2]; Table 1, cells marked ↑: compound stimulates RAD51-ssDNA binding): 47%
- D-Loops Max inhibition effect (RAD51 [4]; Table 1): 17%
- stability when exposed to air at room temperature [7]: not stable
SMILES: COc1ccc2c(c1)NC(c1ccc(N(C)C)cc1)c1cccn1-2 (centres unmarked) [Compound 7, 4-(7-Methoxy-4,5-dihydropyrrolo[1,2-a][13]quinoxalin-4-yl)-N,N-dimethylaniline]
- inhibitory activity in the cell-based HR (DR-GFP) assay relative to 1 and 8, in words (293-DR-GFP cells): comparable
